Measurements from US20090092631A1, “GLYCOSYLATED SPECIFICITY EXCHANGERS THAT INDUCE AN ANTIBODY DEPENDENT CELLULAR CYTOTOXICITY (ADCC) RESPONSE” (priority 2007, published 2009).
Ends that are not written are not given here.

Columns and labels:
HIV-1 IIIB = test: Neutralization assay (plaque-forming units/syncytia) in U87 cells expressing CD4 and co-receptor; assay type: cell-based
Description: Once it had been determined that the glycosylated specificity exchangers appreciably bound gp120 and human antibody, the antiviral activity of the glycosylated specificity exchangers was evaluated using a neutralization assay that is recognized in the art to reasonably predict the therapeutic efficacy of an HIV vaccine. (See Y. Shi et al., “A new cell line-based neutralization assay for primary HIV type 1 isolates,” AIDS Res Hum Retroviruses 18:957-967 (2002), herein expressly incorporated by reference in its entirety). By this approach, HIV infection of U87 cells that express CD4 and one of the major co-receptors (either CXCR4 or CCR5) were challenged with the glycosylated specificity exchangers and human serum during competition with the CD4 receptor. The infected cells form syncytia, that is, plaques, that were stained and enumerated by light microscopy. Neutralization was then determined by the ability of human serum and glycosylated specificity exchanger to reduce the number of plaque-forming units (PFU) relative to controls.
In brief, the U87 cells were seeded onto a 48 well plate at a concentration of 100,000 cell/well 1 day prior infection with HIV-1 IIIB. On the day of infection, glycosylated specificity exchangers (Seq. ID. Nos. 4-9), human serum and virus stock were diluted in culture medium and incubated in a separate 48 well plate, to a final dilution of 1:10/1:20 for the serum and an appropriate concentration of the virus, according to the titration. The glycosylated specificity exchangers were analyzed at different concentrations to determine the minimal amount required for antiviral activity. The glycosylated specificity exchanger-serum-virus mixture was kept at 37° C. for 1 hr. Then, two hundred microliters of each dilution was distributed into wells containing the U87/CD4 cells. The experiment was performed in quadruplicate in the same plate and in five separate plates.
Controls for the assay included glycosylated specificity exchanger without the coupled sugar, the glycosylated specificity exchanger (coupled with the sugar) and a 1:10/1:20 dilution of heat inactivated human serum, cells and medium only, and cells and medium and serum. […]

HIV IIIB virus [1] = test: Syncytia inhibition (plaque) assay on U87 CD4+-CXCR4+ cells; assay type: cell-based, HIV-1; conditions: for neutralization values (ranking): non-inactivated human sera (FIGS. 12H and 12I); for neutralization (comparison among glycopeptides): plaque assay U87, single round TZMbl and H9 infectivity assays, HIV IIIB, inactivated human serum
Description: The CD4 glycopeptides were studied for inhibition of cell to cell interactions in a plaque assay system using U87 cells (FIG. 7), in a single round infectivity assay with TZMbl cells (FIG. 7) and in an infectivity assay with H9 cells, wherein multiple rounds of replication were allowed (FIG. 8). Infectivity was performed with the HIV IIIB virus and inactivated human serum from healthy individuals was used as the source of the anti-gal antibody.
Neutralization was tested based on the prevention of syncytia formation by HIV-1 infection of adherent U87 glioma cells expressing the CD4 receptor and the CXCR4 co-receptor, previously described by Shi Y, et al., (2002) A new cell line-based neutralization assay for primary HIV type 1 isolates. AIDS Res Hum Retroviruses 18:957-967, herein expressly incorporated by reference in its entirety.
Cells were seeded into 48 well plates (Costar, Corning USA) at a concentration of 10^5 cell/well one day prior to infection. On the day of infection, glycopeptides, pooled AB type human serum from healthy individuals (Cambrex, USA) and previously titrated HIV IIIB virus were diluted in culture medium and pre-incubated in a separate 48 well plate for 1 h at 37° C. The peptides were analyzed at different concentrations to evaluate the minimum dose required for antiviral activity. Two hundred microliters of each dilution were distributed into triplicate wells containing the U87 CD4^+-CXCR4^+ cells and incubated for 12 h after which medium was removed and 1 ml of D-MEM medium was added to the cells. The positive controls were infected cells in the presence or absence of human serum and negative controls consisted of uninfected cells in the presence or absence of human serum and an irrelevant glycosylated peptide. At day five the cells were fixated with methanol-acetone (1:1). The number of plaque-forming units was determined after haematoxylin staining and the index was extracted from the ratio between infected cells treated with the peptides and human serum and cells infected with the virus in the presence of human serum. Each peptide was tested at four different concentrations, in quadruplicates in the same plate and in five different plates, i.e. each peptide was run in twenty wells at each concentration.

HIV IIIB virus [2] = test: Multiple round infectivity assay in H9 cells (RT activity, day 11); assay type: cell-based, HIV-1; conditions: 1 μg/ml glycopeptide, 5 or 10% human serum
Description: An infectivity assay was performed on H9 cells that were infected with HIV IIIB virus. All peptides were run at four different dilutions and each dilution was run in quadruplicates together with a 10% or 5% of pooled AB human serum from healthy individuals. (Cambrex, USA).
H9 cells were infected with 100 TCID50 of the HIV IIIB virus and incubated for 1.5 h at 37° C. after which they were centrifuged, the supernatant was discarded and the cells were re-suspended in RPMI medium for a final concentration of 200,000 cells/ml.
One 48 well plate was run per glycopeptide, containing the four dilutions of the glycopeptide and the four replicates of each one of them, plus a positive control of infected cells (with and without human serum) and a negative control of non-infected H9 cells. Each well contained 500 μl of the infected cells +500 μl of the diluted peptide and the chosen dilution of the human serum.
Plates were incubated at 37° C.+5% CO2 until day 7 when 500 μl of supernatant were collected from each well and stored at −20 degrees until further analysis. An additional 500 μl of fresh RPMI medium with the appropriate dilution of the peptide plus the human serum were added to the wells and incubated at 37 degrees until day 11 when the supernatant was measured for Reverse Transcriptase (RT) activity (Cavidi, Sweden) according to the manufacturer's protocol.

[3] = CD4 peptide Alone (without coupled sugar), 0.1 ug/ml, 0.3 equals 30% inhibition
[4] = CD4 peptide Alone (without coupled sugar), 1 ug/ml, 0.3 equals 30% inhibition
[5] = CD4 peptide Alone (without coupled sugar), 10 ug/ml, 0.3 equals 30% inhibition of HIV replication (syncytia formation)
[6] = Glycosylated Sp. Exchanger & 1:10 dilution human serum, 0.1 ug/ml, 0.3 equals 30% inhibition
[7] = Glycosylated Sp. Exchanger & 1:10 dilution human serum, 1 ug/ml, 0.3 equals 30% inhibition
[8] = Glycosylated Sp. Exchanger & 1:10 dilution human serum, 10 ug/ml, 0.3 equals 30% inhibition
[9] = Glycosylated Sp. Exchanger & 1:20 dilution human serum, 0.1 ug/ml, 0.3 equals 30% inhibition
[10] = Glycosylated Sp. Exchanger & 1:20 dilution human serum, 1 ug/ml, 0.3 equals 30% inhibition
[11] = Glycosylated Sp. Exchanger & 1:20 dilution human serum, 10 ug/ml, 0.3 equals 30% inhibition
[12] = Glycosylated Sp. Exchanger, 0.1 ug/ml, 0.3 equals 30% inhibition
[13] = Glycosylated Sp. Exchanger, 1 ug/ml, 0.3 equals 30% inhibition
[14] = Glycosylated Sp. Exchanger, 10 ug/ml, 0.3 equals 30% inhibition

Row | Substance | neutralization of the virus (HIV-1 IIIB; [3]) | neutralization of the virus (HIV-1 IIIB; [4]) | neutralization of the virus (HIV-1 IIIB; [5]) | neutralization of the virus (HIV-1 IIIB; [6]) | neutralization of the virus (HIV-1 IIIB; [7]) | neutralization of the virus (HIV-1 IIIB; [8]) | neutralization of the virus (HIV-1 IIIB; [9]) | neutralization of the virus (HIV-1 IIIB; [10]) | neutralization of the virus (HIV-1 IIIB; [11]) | neutralization of the virus (HIV-1 IIIB; [12]) | neutralization of the virus (HIV-1 IIIB; [13]) | neutralization of the virus (HIV-1 IIIB; [14]) | neutralization of the virus (HIV-1 IIIB; Glycosylated Sp. Exchanger & 1:10 dilution human serum, 100 ug/ml, 0.3 equals 30% inhibition) | neutralization of the virus (HIV-1 IIIB; Glycosylated Sp. Exchanger & 1:20 dilution human serum, 100 ug/ml, 0.3 equals 30% inhibition) | neutralization of the virus (HIV-1 IIIB; Glycosylated Sp. Exchanger, 100 ug/ml, 0.3 equals 30% inhibition) | neutralization values (ranking) (HIV IIIB virus [1]) | neutralization (comparison among glycopeptides) (HIV IIIB virus [1]) | neutralization (HIV IIIB virus [2]) [%]
1 | 6 (KILGNQGSFLTKGPS; Homo sapien) [compound 6] | neg (Neg = negative <0.30) | neg (Neg = negative <0.30) | neg (Neg = negative <0.30) | 0.50 | 0.42 | 0.60 | neg (Neg = negative <0.30) | neg (Neg = negative <0.30) | neg (Neg = negative <0.30) | neg (Neg = negative <0.30) |  |  |  |  |  |  |  | 
2 | 7 (QGSFLTKGPSKLNDR; Homo sapien) [compound 7] | neg (Neg = negative <0.30) | neg (Neg = negative <0.30) | neg (Neg = negative <0.30) | 0.439 | 0.461 | 0.454 | neg (Neg = negative <0.30) | neg (Neg = negative <0.30) | neg (Neg = negative <0.30) | neg (Neg = negative <0.30) | neg (Neg = negative <0.30) | neg (Neg = negative <0.30) |  |  |  |  |  | 
3 | 8 (TKGPSKLNDRADSRR; Homo sapien) [compound 8] |  |  |  | 0.778 | 0.821 | 0.83 | 0.701 | 0.667 | 0.642 |  | 0.548 | 0.552 |  |  |  |  |  | 
4 | 9 (KLNDRADSRRSLWDQ; Homo sapien) [compound 9] |  |  |  | 0.76 | 0.75 | 0.78 | 0.71 | 0.75 | 0.74 | neg (Neg = negative <0.30) | neg (Neg = negative <0.30) | neg (Neg = negative <0.30) | 0.75 | 0.734 | neg (Neg = negative <0.30) |  |  | 
5 | KILGNQGSFLTKGPS ({Gal‑α1‑3Gal‑β glyco‑aspartic acid}-KILGNQGSFLTKGPS) [Seq. Id. No. 6, CD4 receptor peptide with Gal-α1-3Gal-β glyco-aspartic acid linked to its N-terminal end] |  |  |  |  |  |  |  |  |  |  |  |  |  |  |  | Highest neutralization values | greater neutralization | 90
6 | QGSFLTKGPSKLNDR ({Gal‑α1‑3Gal‑β glyco‑aspartic acid}-QGSFLTKGPSKLNDR) [Seq. Id. No. 7, CD4 receptor peptide with Gal-α1-3Gal-β glyco-aspartic acid linked to its N-terminal end] | neg (Neg = negative <0.30) | neg (Neg = negative <0.30) | neg (Neg = negative <0.30) | 0.48 | 0.48 | 0.55 | 0.47 | 0.47 | 0.48 | neg (Neg = negative <0.30) | neg (Neg = negative <0.30) | neg (Neg = negative <0.30) |  |  |  | Highest neutralization values | greater neutralization | 90
7 | TKGPSKLNDRADSRR ({Gal‑α1‑3Gal‑β glyco‑aspartic acid}-TKGPSKLNDRADSRR) [Seq. Id. No. 8, CD4 receptor peptide with Gal-α1-3Gal-β glyco-aspartic acid linked to its N-terminal end] | neg (Neg = negative <0.30) | neg (Neg = negative <0.30) | neg (Neg = negative <0.30) | neg (Neg = negative <0.30) | 0.39 | 0.49 | neg (Neg = negative <0.30) | 0.32 | 0.429 | neg (Neg = negative <0.30) | neg (Neg = negative <0.30) | neg (Neg = negative <0.30) |  |  |  | Highest neutralization values | greater neutralization | 90
